Publication PMC7031696 (Cell chemical biology, 2019)
Read-outs that look alike come from different tables or passages of the source.

Key:
[1] = tested on: Plasmodium falciparum 3D7-A10 parasites; test: Stage specificity assay (8-h exposure of synchronized stages, IC50^8h); assay type: cell-based; settings: for IC50: Plasmodium falciparum
[2] = tested on: asynchronous 3D7-A10 parasite cultures; test: Standard 72-h exposure asexual blood stage susceptibility assay (IC50^72h); assay type: cell-based, Plasmodium falciparum; settings: Plasmodium falciparum, 3D7, 72 h, read-out: Overall (72hr assay) Mean IC50 (IC50^72h)
[3] = tested on: 3D7-MR4 trophozoite parasite-infected RBCs; test: Metabolomic profiling (hydrophilic metabolite changes, UHPLC-MS); assay type: cell-based, Plasmodium falciparum

Ratio lowest IC50 8hr/IC50 72hr ([1]; 3D7-A10): 1.8
IC50 [2]: 1.8 nM
SMILES: CN(C)c1ccc2nc3ccc(=[N+](C)C)cc-3sc2c1 [Methylene blue, reference compound]
IC50 ([1]; 3D7, read-out: Early rings Mean IC50 (IC50^8h), 8-h exposure 0–8 hr, 3D7-A10, survival at 60 h): 3.2 nM
IC50 ([1]; 3D7, read-out: Early trophozoites Mean IC50 (IC50^8h), 8-h exposure 16–24 hr, 3D7-A10, survival at 60 h): 5.9 nM
IC50 ([1]; 3D7, read-out: Late rings Mean IC50 (IC50^8h), 8-h exposure 8–16 hr, 3D7-A10, survival at 60 h): 13.3 nM
IC50 ([1]; 3D7, read-out: Late trophozoites Mean IC50 (IC50^8h), 8-h exposure 24–32 hr, 3D7-A10, survival at 60 h): 8.3 nM
IC50 ([1]; 3D7, read-out: Schizonts Mean IC50 (IC50^8h), 8-h exposure 32–40 hr, 3D7-A10, survival at 60 h): 64.8 nM
Stage of peak activity (Figure 6) ([1]; period when the parasite was most susceptible (lowest IC50^8h)): rings and trophozoites
changes within the set of metabolites detected (low fold change group) ([3]; 10 × IC50^72h, 2.5 hr, trophozoites): did not induce major changes
Log2(fold changes) 3-phosphoglycerate ([3]; metabolite 3-phosphoglycerate, log2 fold change): 0.1717
Log2(fold changes) 4-Pyridoxic acid ([3]; metabolite 4-Pyridoxic acid, log2 fold change): 0.0000
Log2(fold changes) 4-aminobutyrate ([3]; metabolite 4-aminobutyrate, log2 fold change): -0.1073
Log2(fold changes) 4-phosphopantetheine ([3]; metabolite 4-phosphopantetheine, log2 fold change): 0.0000
Log2(fold changes) 4-phosphopantothenate ([3]; metabolite 4-phosphopantothenate, log2 fold change): -0.3089
Log2(fold changes) 5-aminopentanoic acid ([3]; metabolite 5-aminopentanoic acid, log2 fold change): 0.0000
Log2(fold changes) 5-methyl-THF ([3]; metabolite 5-methyl-THF, log2 fold change): 0.0000
Log2(fold changes) 5-phosphoribosyl-1-pyrophosphate ([3]; metabolite 5-phosphoribosyl-1-pyrophosphate, log2 fold change): 0.7627
Log2(fold changes) 6-phospho-D-gluconate ([3]; metabolite 6-phospho-D-gluconate, log2 fold change): 0.0184
Log2(fold change) HVDD ([3]; metabolite HVDD): 0.0000
Log2(fold change) Hydroxyisocaproic acid ([3]; metabolite Hydroxyisocaproic acid): 0.0000
Log2(fold change) IDP ([3]; metabolite IDP): 0.2471
Log2(fold change) IMP ([3]; metabolite IMP): -0.1535
Log2(fold change) Inositol ([3]; metabolite Inositol): 0.0000
Log2(fold change) Isopentyl-PP ([3]; metabolite Isopentyl-PP): 0.0000
Log2(fold change) L-arginino-succinate ([3]; metabolite L-arginino-succinate): 0.0000
Log2(fold change) LD ([3]; metabolite LD): -0.0546
Log2(fold change) Myristoyl/tetradecanoyl-CoA ([3]; metabolite Myristoyl/tetradecanoyl-CoA): 0.0000
Log2(fold change) N-Acetyl-L-alanine ([3]; metabolite N-Acetyl-L-alanine): 0.0660
Log2(fold change) N-acetyl-L-ornithine ([3]; metabolite N-acetyl-L-ornithine): -0.0972
Log2(fold change) N-acetyl-glucosamine-1/6-phosphate ([3]; metabolite N-acetyl-glucosamine-1/6-phosphate): -0.3026
Log2(fold change) N-acetyl-glutamate ([3]; metabolite N-acetyl-glutamate): -0.1200
Log2(fold change) N-acetyl-glutamine ([3]; metabolite N-acetyl-glutamine): 0.0000
Log2(fold change) N-carbamoyl-L-aspartate ([3]; metabolite N-carbamoyl-L-aspartate): -0.4399
Log2(fold change) NAD+ ([3]; metabolite NAD+): -0.1775
Log2(fold change) NADH ([3]; metabolite NADH): 0.6869
Log2(fold change) NADP+ ([3]; metabolite NADP+): 0.0190
Log2(fold change) NADPH ([3]; metabolite NADPH): 0.5257
Log2(fold change) O-acetyl-L-serine ([3]; metabolite O-acetyl-L-serine): 0.0000
Log2(fold change) Octoluse 8/1P ([3]; metabolite Octoluse 8/1P): -0.1481
Log2(fold change) Octoluse Bisphosphate ([3]; metabolite Octoluse Bisphosphate): -0.0868
Log2(fold change) PD ([3]; metabolite PD): -0.1726
Log2(fold change) PE ([3]; metabolite PE): -0.0321
Log2(fold change) PEE ([3]; metabolite PEE): 0.0787
Log2(fold change) PEEK ([3]; metabolite PEEK): 0.2857
Log2(fold change) PVNF ([3]; metabolite PVNF): 0.3021
Log2(fold change) Pyroglutamic acid ([3]; metabolite Pyroglutamic acid): -0.1430
Log2(fold change) Pyrophosphate ([3]; metabolite Pyrophosphate): 0.0000
Log2(fold change) Ribose-5-phosphate ([3]; metabolite Ribose-5-phosphate): 0.0744
Log2(fold change) S-adenosyl-L-homocysteine ([3]; metabolite S-adenosyl-L-homocysteine): -0.2409
Log2(fold change) S-adenosyl-L-methioninamine ([3]; metabolite S-adenosyl-L-methioninamine): 0.0000
Log2(fold change) S-adenosyl-L-methionine ([3]; metabolite S-adenosyl-L-methionine): 0.0000
Log2(fold change) S-methyl-5'-thioadenosine ([3]; metabolite S-methyl-5'-thioadenosine): -0.0807
Log2(fold change) SD ([3]; metabolite SD): -0.0525
Log2(fold change) SDL ([3]; metabolite SDL): 0.0000
Log2(fold change) SID ([3]; metabolite SID): 0.0000
Log2(fold change) Sedoheptulose bisphosphate ([3]; metabolite Sedoheptulose bisphosphate): 0.0024
Log2(fold change) Thiamine pyrophosphate ([3]; metabolite Thiamine pyrophosphate): -0.2290
Log2(fold changes) UDP-D-glucose ([3]; metabolite UDP-D-glucose, log2 fold change): -0.0680
Log2(fold changes) UDP-D-glucuronate ([3]; metabolite UDP-D-glucuronate, log2 fold change): 0.0789
Log2(fold changes) UDP-N-acetyl-glucosamine ([3]; metabolite UDP-N-acetyl-glucosamine, log2 fold change): -0.1825
Log2(fold changes) UDP ([3]; metabolite UDP, log2 fold change): -0.3881
Log2(fold changes) UMP ([3]; metabolite UMP, log2 fold change): -0.2463
Log2(fold changes) UTP ([3]; metabolite UTP, log2 fold change): -0.0408
Log2(fold change) hydroxyphenylpyruvate ([3]; metabolite hydroxyphenylpyruvate): 0.0000
Log2(fold change) hydroxyproline/Aminolevulinate ([3]; metabolite hydroxyproline/Aminolevulinate): 0.0000
Log2(fold change) hypoxanthine ([3]; metabolite hypoxanthine): 0.0000
Log2(fold change) indole ([3]; metabolite indole): 0.0000
Log2(fold change) inosine ([3]; metabolite inosine): -0.4017
Log2(fold change) isoleucine ([3]; metabolite isoleucine): 0.7210
Log2(fold change) lactate ([3]; metabolite lactate): -0.1398
Log2(fold change) leucine ([3]; metabolite leucine): 0.2614
Log2(fold change) lysine ([3]; metabolite lysine): -0.0829
Log2(fold change) malate ([3]; metabolite malate): -0.0400
Log2(fold change) maleic acid ([3]; metabolite maleic acid): -0.0220
Log2(fold change) methionine ([3]; metabolite methionine): 0.1258
Log2(fold change) myo-inositol ([3]; metabolite myo-inositol): -0.2003
Log2(fold change) nicotinamide mononucleotide ([3]; metabolite nicotinamide mononucleotide): -0.1519
Log2(fold change) nicotinate ([3]; metabolite nicotinate): -0.3017
Log2(fold change) ornithine ([3]; metabolite ornithine): 0.0000
Log2(fold change) orotate ([3]; metabolite orotate): -0.5750
Log2(fold change) orotidine-5'-phosphate ([3]; metabolite orotidine-5'-phosphate): -0.6269
Log2(fold change) oxaloacetate ([3]; metabolite oxaloacetate): 0.0000
Log2(fold change) p-aminobenzoate ([3]; metabolite p-aminobenzoate): 0.0000
Log2(fold change) p-hydroxybenzoate ([3]; metabolite p-hydroxybenzoate): 0.0000
Log2(fold change) pantothenate ([3]; metabolite pantothenate): -1.6576
Log2(fold change) phenylalanine ([3]; metabolite phenylalanine): 0.0379
Log2(fold change) phenylpyruvate ([3]; metabolite phenylpyruvate): 0.0000
Log2(fold change) phosphoenolpyruvate ([3]; metabolite phosphoenolpyruvate): 0.1672
Log2(fold change) prephenate ([3]; metabolite prephenate): 0.0000
Log2(fold change) proline ([3]; metabolite proline): 0.1190
Log2(fold change) pyridoxine ([3]; metabolite pyridoxine): -0.1182
Log2(fold change) pyruvate ([3]; metabolite pyruvate): -0.0447
Log2(fold change) riboflavin ([3]; metabolite riboflavin): -0.0900
Log2(fold change) ribose ([3]; metabolite ribose): 0.0000
Log2(fold change) ribose-phosphate ([3]; metabolite ribose-phosphate): -0.1993
Log2(fold change) ribulose-5-phosphate ([3]; metabolite ribulose-5-phosphate): -0.1201
Log2(fold change) serine ([3]; metabolite serine): -0.0692
Log2(fold change) sn-glycerol-3-phosphate ([3]; metabolite sn-glycerol-3-phosphate): 0.0549
Log2(fold change) succinate/Methylmalonic acid ([3]; metabolite succinate/Methylmalonic acid): 0.4289
Log2(fold change) succinyl-CoA/methylmalonyl-CoA ([3]; metabolite succinyl-CoA/methylmalonyl-CoA): 0.0000
Log2(fold change) taurine ([3]; metabolite taurine): 0.1250
Log2(fold change) thiamine ([3]; metabolite thiamine): -0.2233
Log2(fold change) threonine/homoserine ([3]; metabolite threonine/homoserine): -0.1021
Log2(fold change) thymidine ([3]; metabolite thymidine): 0.0000
Log2(fold changes) thymine ([3]; metabolite thymine, log2 fold change): 0.0000
Log2(fold changes) trehalose-6-Phosphate ([3]; metabolite trehalose-6-Phosphate, log2 fold change): 0.0000
Log2(fold changes) tryptophan ([3]; metabolite tryptophan, log2 fold change): 0.0214
Log2(fold changes) tyrosine ([3]; metabolite tyrosine, log2 fold change): 0.0876
Log2(fold changes) uridine ([3]; metabolite uridine, log2 fold change): -0.4227
